What was measured:
[1] = test system: left atrium of the anesthetized pig; test: Refractory period and left-atrial vulnerability in the anesthetized pig; format: in vivo; conditions: bolus 1 mg/kg, n = 2
Experimental: Investigation of the refractory period and the left-atrial vulnerability in the pig:
The compounds were tested for prolongation of the refractory period and antiarrhythmic activity on the atrium of the anesthetized pig as described in the literature (Knobloch et al. 2002. Naunyn-Schmiedberg's Arch. Pharmacol. 366; 482-487). Here the anti-arrhythmic action relates to the inhibition of the occurrence of episodes of arrhythmias which are induced by a prematurely placed extra-stimulus (S2) in the left atrium (=left-atrial vulnerability). The refractory period values are stated in percent of the basal values 15 minutes after injection. Mean values for the refractory periods are shown from three rates (150, 200 and 250/min). The inhibitory values for the inhibition of episodes of arrhythmias refer to 3 measurements (3 timepoints) before administration vs. 3 measurements during the first hour after administration of the compounds.
The action of 3-[5-Acetyl-1-((1R,2R)-6-chloro-4-fluoro-2-hydroxy-indan-1-yl)-4,5,6,7-tetrahydro-1H-pyrazolo[4,3-c]pyridin-3-yl]-benzonitrile (11j) on the refractory period of the left atrium and antiarrhythmic activity in the anesthetized pig after a bolus administration of 1 mg/kg is shown in table 12. From the results shown in table 12, it is seen that it was possible to prevent 82% of the induced arrhythmias.

Human TASK-1 channels = Human TASK-1 channels (Homo sapiens (Human), UniProt O14649); test: Activity on the TASK-1 channel in Xenopus oocytes (two-microelectrode voltage clamp); format: cell-based; conditions: for IC50: human TASK-1 expressed in Xenopus oocytes, currents during 500 ms pulses to 40 mV, room temperature; for inhibition at 5 µM: percentage inhibition of TASK-1 control current, Xenopus oocytes
Sequence of Human TASK-1 channels (O14649 whole entry): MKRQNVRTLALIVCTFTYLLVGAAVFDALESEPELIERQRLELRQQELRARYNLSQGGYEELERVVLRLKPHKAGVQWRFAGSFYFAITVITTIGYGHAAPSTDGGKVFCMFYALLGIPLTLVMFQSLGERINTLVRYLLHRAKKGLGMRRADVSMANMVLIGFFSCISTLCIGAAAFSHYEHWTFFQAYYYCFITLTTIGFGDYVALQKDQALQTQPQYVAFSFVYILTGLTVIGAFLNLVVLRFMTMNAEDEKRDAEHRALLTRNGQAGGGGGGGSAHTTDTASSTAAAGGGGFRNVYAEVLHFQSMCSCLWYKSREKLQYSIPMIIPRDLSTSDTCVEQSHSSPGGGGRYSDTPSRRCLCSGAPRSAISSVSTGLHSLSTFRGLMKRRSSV
Experimental: Determination of the activity on the TASK-1 channel in Xenopus oocytes:
Human TASK-1 channels were expressed in Xenopus oocytes. For this purpose, oocytes were isolated from Xenopus laevis and defolliculated. Subsequently, TASK-1-encoding RNA synthesized in vitro was injected into oocytes. After two days of TASK-1 protein expression, TASK-1 currents were measured by two-microelectrode voltage clamp. Data were acquired and analyzed using a TEC-10cx amplifier (NPI Electronic, Tamm, Germany) connected to an ITC-16 interface (Instrutech Corp., Long Island, USA) and Pulse software (HEKA Elektronik, Lambrecht, Germany). Oocytes were clamped to −90 mV and TASK-1 mediated currents were measured during 500 ms voltage pulses to 40 mV. Oocytes were continuously superfused with ND96 buffer containing: NaCl 96 mM, KCl2 mM, CaCl2 1.8 mM, MgCl2 1 mM, HEPES 5 mM (pH adjusted to 7.4 with NaOH). All experiments were performed at room temperature.
Test substances were consecutively added to the bath solution at rising concentrations. Compound effects were calculated as the percentage inhibition of
TASK-1 control current before compound application. IC50 values were obtained by fitting the data to the general dose-response equation.

| IC50 (Human TASK-1 channels) [nM] | inhibition at 5 µM (Human TASK-1 channels) [%] | SMILES | % inhibition of the arrhythmias ([1]; S2-induced left-atrial arrhythmias, first hour after administration) [%] | % increase in the refractory period ([1]; left atrium, 15 minutes after injection, mean of three rates (150, 200 and 250/min)) [%] |
| --- | --- | --- | --- | --- |
| 439 |  | CC(=O)N1CCc2c(c(-c3cccc(C#N)c3)nn2[C@@H]2c3cc(Cl)cc(F)c3C[C@H]2O)C1 [Example 11j, 3-[5-Acetyl-1-((1R,2R)-6-chloro-4-fluoro-2-hydroxy-indan-1-yl)-4,5,6,7-tetrahydro-1H-pyrazolo[4,3-c]pyridin-3-yl]-benzonitrile] | 82 | 20 |
|  | 87 | CSc1cc(F)cc2c1C[C@@H](O)[C@@H]2n1nc(-c2cccc(C#N)c2)c2c1CCN(C(C)=O)C2 [Example 21c, 3-[5-Acetyl-1-((1R,2R)-6-fluoro-2-hydroxy-4-methylsulfanyl-indan-1-yl)-4,5,6,7-tetrahydro-1H-pyrazolo[4,3-c]pyridin-3-yl]-benzonitrile] |  |  |
| 180 |  | CCNC(=O)N1CCc2c(c(-c3cccc(C#N)c3)nn2[C@@H]2c3cc(Cl)cc(Cl)c3C[C@H]2O)C1 [Example 22a, 3-(3-Cyano-phenyl)-1-((1R,2R)-4,6-dichloro-2-hydroxy-indan-1-yl)-1,4,6,7-tetrahydro-pyrazolo[4,3-c]pyridine-5-carboxylic acid ethylamide] |  |  |
|  | 80 | CS(=O)(=O)N1CCc2c(c(-c3cccc(C#N)c3)nn2[C@@H]2c3cc(Cl)cc(Cl)c3C[C@H]2O)C1 [Example 23a, 3-[1-((1R,2R)-4,6-Dichloro-2-hydroxy-indan-1-yl)-5-methanesulfonyl-4,5,6,7-tetrahydro-1H-pyrazolo[4,3-c]pyridin-3-yl]-benzonitrile] |  |  |

From patent US9034897B2, “Indanyl-substituted 4,5,6,7-tetrahydro-1H-pyrazolo[4,3-C]pyridines, their use as medicament, and pharmaceutical preparations comprising them” (SANOFI, priority 2011, dated 2015)
